We go through eleven molecules from PubChem BioAssay (NCI).

Among the test systems are HT29 colon; SK-OV-3 ovarian; HOP-92 NSCLC; SW-620 colon; HCC-2998 colon; SF-268 CNS; MCF7 breast; RPMI-8226 leukemia; NCI-H23 lung; HOP-62 NSCLC.
What all share (test): NCI-60 cell line screen, 48 h

Each structure is given as a SMILES string. Values joined by “and” are separate entries in the source; they are usually repeats but may differ in a detail not shown here. Equal entries are not always repeated.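 Protocol summary: plate cells (96-well), add compound at 5 concentrations, incubate 48 h, interpolate endpoints linearly. GI50 = concentration required for 50% inhibition of growth. TGI denotes the concentration required for complete inhibition of growth.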

With `COc1ccc(/C=C2\CCC/C(=C\c3ccc(OC)c(OC)c3)C2=O)cc1OC`, the GI50 in the test on HT29 colon is 1.34 µM; in the test on SK-OV-3 ovarian, 12.1 µM; in the test with HOP-92 NSCLC, 11.3 µM; with SW-620 colon, 1.49 µM; in the test on HCC-2998 colon, over 32.5 µM; in the test on SF-268 CNS, 4.28 µM. For the same molecule, the GI50 in the test on MCF7 breast was 1.19 µM; with RPMI-8226 leukemia, 1.15 µM; with NCI-H23 lung, 2.91 µM; with HOP-62 NSCLC, 4.59 µM. Also, the TGI in the test with HT29 colon was over 32.5 µM; in the test on SK-OV-3 ovarian it was over 32.5 µM; in the test with HOP-92 NSCLC it was over 32.5 µM; in the test with SW-620 colon, 24.1 µM; with HCC-2998 colon it was over 32.5 µM; in the test with SF-268 CNS, over 32.5 µM. Moreover, the TGI in the test with MCF7 breast, with RPMI-8226 leukemia, in the test on NCI-H23 lung and in the test on HOP-62 NSCLC was over 32.5 µM in each case.
As for `CC[C@H](C)[C@H](NC(=O)[C@H]1CCCCN1C)C(=O)N(C)[C@H](C[C@@H](OC(C)=O)c1nc(C(=O)NC23CC(C(=O)OC)(C2)C3)cs1)C(C)C`, the GI50 in the test with HT29 colon was 0.000433 µM and 0.00325 µM; in the test on SK-OV-3 ovarian, 0.0022 µM and 0.00357 µM; with HOP-92 NSCLC it was 0.000734 µM; with SW-620 colon, 0.000424 µM and 0.00325 µM; with HCC-2998 colon it was 0.00299 µM and 0.00325 µM; in the test with SF-268 CNS it was 0.000937 µM and 0.00325 µM. Also, the GI50 in the test on RPMI-8226 leukemia was 0.000328 µM and 0.00325 µM; with NCI-H23 lung, 0.00511 µM and 0.00325 µM; in the test with HOP-62 NSCLC, 0.000538 µM and 0.00325 µM. Also, the TGI was 0.0103 µM and 0.011 µM in the test with HT29 colon; over 32.5 µM with SK-OV-3 ovarian; over 32.5 µM with SW-620 colon; over 32.5 µM in the test on HCC-2998 colon; over 32.5 µM with SF-268 CNS; over 32.5 µM in the test with MCF7 breast. For the same molecule, the TGI in the test with RPMI-8226 leukemia was 12.1 µM; in the test with NCI-H23 lung, over 32.5 µM.
For the molecule `CCCCCCCCCCCC[C@@H](O)[C@H]1CC[C@H]([C@H](O)CC[C@H](O)[C@@H]2CC[C@@H](CCCCCCCC3=C[C@H](C)OC3=O)O2)O1`, the TGI in the test on HT29 colon, in the test with SK-OV-3 ovarian, with HOP-92 NSCLC, in the test with SW-620 colon, in the test on HCC-2998 colon and in the test with SF-268 CNS was over 50 µM each time. For the same molecule, the TGI in the test with MCF7 breast, in the test on RPMI-8226 leukemia, in the test on NCI-H23 lung and in the test on HOP-62 NSCLC was over 50 µM in each case. In addition, the GI50 in the test on HOP-92 NSCLC was 3.08 µM; in the test with SW-620 colon, 3.23 µM; in the test with SF-268 CNS it was 4.21 µM; with MCF7 breast, 1.85 µM; in the test on RPMI-8226 leukemia it was 2.45 µM; in the test with NCI-H23 lung, 0.164 µM.
Turning to `CCc1ccc(Nc2cc(C)c3ccc(O)cc3n2)cc1`, the GI50 in the test with HT29 colon is 3.57 µM; with SK-OV-3 ovarian, 12.6 µM; with HOP-92 NSCLC it was 2.81 µM; with SW-620 colon it was 5.48 µM; in the test with HCC-2998 colon it was 5.18 µM; in the test on SF-268 CNS, 11.2 µM. In addition, the GI50 in the test with MCF7 breast is 4.75 µM; with RPMI-8226 leukemia, 3.19 µM; in the test with NCI-H23 lung, 3.34 µM; in the test with HOP-62 NSCLC it was 11.5 µM. In addition, the TGI was 12.5 µM with HT29 colon; 25.2 µM with SK-OV-3 ovarian; 10.8 µM in the test on HOP-92 NSCLC; 20.2 µM in the test on SW-620 colon; 17.4 µM with HCC-2998 colon; 30.3 µM with SF-268 CNS. In addition, the TGI in the test with MCF7 breast was 22.4 µM; in the test on RPMI-8226 leukemia, 20.2 µM; in the test on NCI-H23 lung, 15.6 µM; in the test on HOP-62 NSCLC it was 24.3 µM.
Regarding `OCCCCC#Cc1ccccc1C#Cc1cccc(C(F)(F)F)c1`, the GI50 with HT29 colon is 10.5 µM; in the test with SK-OV-3 ovarian it was 19.7 µM; with HOP-92 NSCLC, 19.9 µM; with SW-620 colon, 16.9 µM; in the test on HCC-2998 colon, 17.7 µM; in the test on SF-268 CNS, 19.1 µM. Moreover, the GI50 is 21.2 µM in the test on MCF7 breast, 21.7 µM with RPMI-8226 leukemia, 16.4 µM with NCI-H23 lung and 16.9 µM in the test with HOP-62 NSCLC. Also, the TGI in the test on HT29 colon worked out at 23.4 µM; with SK-OV-3 ovarian, 35.3 µM; in the test on HOP-92 NSCLC, 36.2 µM; in the test with SW-620 colon, 37 µM; with HCC-2998 colon, 32.3 µM; in the test on SF-268 CNS it was 42.5 µM. In addition, the TGI in the test with MCF7 breast was determined as 42.7 µM; with RPMI-8226 leukemia, 40.6 µM; in the test with NCI-H23 lung, 31.5 µM; in the test on HOP-62 NSCLC, 33.3 µM.
In the case of `CCCCCCCCCCCCCCNC(=O)Nc1ccc(Cl)c(Cl)c1`, the GI50 is 3.27 µM in the test with HT29 colon; 3 µM in the test with SK-OV-3 ovarian; 2.75 µM with HOP-92 NSCLC; 3.18 µM in the test on SW-620 colon; 2.85 µM with HCC-2998 colon; 3.72 µM with SF-268 CNS. Moreover, the GI50 in the test with MCF7 breast was 2.86 µM; with RPMI-8226 leukemia, 1.24 µM; with NCI-H23 lung, 2.86 µM; in the test with HOP-62 NSCLC it was 2.77 µM. Moreover, the TGI was over 100 µM in the test with HT29 colon; over 28.3 µM with SK-OV-3 ovarian; 8.65 µM with HOP-92 NSCLC; over 100 µM in the test on SW-620 colon; over 100 µM in the test with HCC-2998 colon; over 100 µM with SF-268 CNS. The TGI in the test on MCF7 breast was over 36.1 µM; with RPMI-8226 leukemia it was 3.26 µM; in the test with NCI-H23 lung it was 26.3 µM; in the test with HOP-62 NSCLC, over 23.1 µM.
For `COc1cc(-c2nccc3[nH]c(-c4ccc5cc[nH]c5c4)nc23)cc(OC)c1OC`, the GI50 with HT29 colon was under 0.01 µM; in the test with SK-OV-3 ovarian, under 0.01 µM; in the test on HOP-92 NSCLC it was 0.306 µM; with SW-620 colon, under 0.01 µM; in the test with HCC-2998 colon, under 0.01 µM; in the test on SF-268 CNS, under 0.01 µM. Also, the GI50 in the test on MCF7 breast is 0.0568 µM; with RPMI-8226 leukemia it was 0.0448 µM; in the test with NCI-H23 lung, under 0.01 µM; in the test on HOP-62 NSCLC, under 0.01 µM. In addition, the TGI in the test on HT29 colon was determined as 1.08 µM; in the test with SK-OV-3 ovarian, 5.66 µM; in the test with HOP-92 NSCLC, 4.98 µM; in the test on SW-620 colon, 1.6 µM; with HCC-2998 colon it was 1.43 µM; in the test with SF-268 CNS it was 3.21 µM. Further, the TGI was 2.87 µM in the test on MCF7 breast, 5.16 µM in the test with RPMI-8226 leukemia, 4.2 µM with NCI-H23 lung and 2.67 µM in the test on HOP-62 NSCLC.
As for `COc1ccc(-c2nc3ccc(Cc4ccc5nc(-c6ccc(OC)cc6)[nH]c5c4)cc3[nH]2)cc1`, the GI50 was under 0.01 µM with HT29 colon; 0.0314 µM in the test with SK-OV-3 ovarian; 0.394 µM in the test on HOP-92 NSCLC; under 0.0151 µM in the test on SW-620 colon; 0.027 µM with HCC-2998 colon; 0.0556 µM in the test on SF-268 CNS. The GI50 is 0.0254 µM in the test on MCF7 breast, 0.0425 µM in the test with RPMI-8226 leukemia, 0.0516 µM in the test on NCI-H23 lung and 0.0291 µM in the test with HOP-62 NSCLC. The TGI in the test with HT29 colon was 0.11 µM; in the test on SK-OV-3 ovarian it was 1.89 µM; in the test with HOP-92 NSCLC, 2.26 µM; with SW-620 colon it was 0.173 µM; with HCC-2998 colon, 0.188 µM; in the test on SF-268 CNS it was 1.85 µM. The TGI was found to be 0.424 µM with MCF7 breast, 0.326 µM with RPMI-8226 leukemia, 2.81 µM in the test with NCI-H23 lung and 2.07 µM in the test on HOP-62 NSCLC.
In the case of `CC(C)[C@@H]1CC[C@]2(CO2)[C@@H]2C(=O)OCC(C(=O)O)=C[C@H]21`, the GI50 is 0.352 µM in the test on HT29 colon; 0.438 µM in the test on SK-OV-3 ovarian; 0.235 µM with HOP-92 NSCLC; 0.334 µM in the test on SW-620 colon; 0.459 µM with HCC-2998 colon; 0.34 µM with SF-268 CNS. Moreover, the GI50 in the test on MCF7 breast is 0.824 µM; in the test on RPMI-8226 leukemia it was 0.24 µM; in the test on NCI-H23 lung, 1.35 µM; in the test on HOP-62 NSCLC it was 0.35 µM. Also, the TGI in the test with HT29 colon is over 33.9 µM; with SK-OV-3 ovarian it was over 100 µM; with HOP-92 NSCLC it was 0.79 µM; in the test on SW-620 colon, over 100 µM; with HCC-2998 colon, over 52.3 µM; in the test on SF-268 CNS, over 52.5 µM. Besides, the TGI is over 100 µM in the test with MCF7 breast, 0.635 µM in the test on RPMI-8226 leukemia, 8.41 µM in the test with NCI-H23 lung and 6.94 µM in the test with HOP-62 NSCLC.
`COc1cc(OC)c(OC)cc1/C=C/c1nc2ccccc2s1`: the TGI was over 100 µM in the test with HT29 colon; over 100 µM in the test on SK-OV-3 ovarian; 56.9 µM in the test on HOP-92 NSCLC; over 100 µM in the test on SW-620 colon; over 100 µM in the test on HCC-2998 colon; over 100 µM with SF-268 CNS. Also, the TGI in the test on MCF7 breast, in the test on RPMI-8226 leukemia, in the test with NCI-H23 lung and with HOP-62 NSCLC was over 100 µM throughout.
With `COCCN(Cc1ccc(F)cc1)c1ccc(CO)c(Cl)c1`, the GI50 is 22.4 µM in the test on HT29 colon; 38.6 µM with SK-OV-3 ovarian; 8.16 µM in the test on HOP-92 NSCLC; 7.29 µM in the test on SW-620 colon; 24 µM with HCC-2998 colon; 50.6 µM in the test with SF-268 CNS. In addition, the GI50 with MCF7 breast was 2.79 µM; in the test on RPMI-8226 leukemia, 17.6 µM; in the test with NCI-H23 lung, 17.2 µM; in the test on HOP-62 NSCLC, 13.5 µM. Moreover, the TGI was over 100 µM with HT29 colon; over 100 µM in the test with SK-OV-3 ovarian; 60.1 µM with HOP-92 NSCLC; over 100 µM with SW-620 colon; over 100 µM with HCC-2998 colon; over 100 µM in the test on SF-268 CNS. For the same molecule, the TGI in the test on MCF7 breast was over 100 µM; in the test on RPMI-8226 leukemia, over 95.9 µM; in the test with NCI-H23 lung, over 100 µM; in the test on HOP-62 NSCLC, over 100 µM.
